The values that follow come from US20250302815A1, “PROTEIN TYROSINE PHOSPHATASE TARGETING LIGANDS” (CALICO LIFE SCIENCES LLC, priority 2021, published 2025).

Where only a bound is given, the exact number is not on record here.

The target of one assay is T1, PTPN2 (B16F10.4 cells) (Mus musculus, UniProt Q06180).
T1 construct: HiBiT; host or cells: B16F10.4
T1 sequence (Q06180 1-406): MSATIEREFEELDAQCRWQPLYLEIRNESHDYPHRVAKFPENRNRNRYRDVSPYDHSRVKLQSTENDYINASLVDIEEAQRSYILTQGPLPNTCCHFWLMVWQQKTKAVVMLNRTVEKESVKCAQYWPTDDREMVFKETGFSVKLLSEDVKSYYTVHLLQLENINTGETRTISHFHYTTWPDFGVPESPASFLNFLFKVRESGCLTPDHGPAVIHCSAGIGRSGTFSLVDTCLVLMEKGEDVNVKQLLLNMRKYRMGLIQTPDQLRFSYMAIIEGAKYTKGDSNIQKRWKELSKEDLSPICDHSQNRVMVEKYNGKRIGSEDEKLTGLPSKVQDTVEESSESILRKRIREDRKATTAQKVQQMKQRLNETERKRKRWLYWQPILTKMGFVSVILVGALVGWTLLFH
Briefly: HiBiT Degradation B16F10.4 PTPN2. It counts as cell-based. To be noted: 24.0 hours.

The target of assay [1] is T2, PTPN2 (HiBIT-PTPN2 in 293T.109 cells) (Homo sapiens, UniProt P17706).
T2 construct: expressed in transfected cells; host or cells: 293T.109 (293T WT from ATCC)
T2 sequence (P17706 1-415): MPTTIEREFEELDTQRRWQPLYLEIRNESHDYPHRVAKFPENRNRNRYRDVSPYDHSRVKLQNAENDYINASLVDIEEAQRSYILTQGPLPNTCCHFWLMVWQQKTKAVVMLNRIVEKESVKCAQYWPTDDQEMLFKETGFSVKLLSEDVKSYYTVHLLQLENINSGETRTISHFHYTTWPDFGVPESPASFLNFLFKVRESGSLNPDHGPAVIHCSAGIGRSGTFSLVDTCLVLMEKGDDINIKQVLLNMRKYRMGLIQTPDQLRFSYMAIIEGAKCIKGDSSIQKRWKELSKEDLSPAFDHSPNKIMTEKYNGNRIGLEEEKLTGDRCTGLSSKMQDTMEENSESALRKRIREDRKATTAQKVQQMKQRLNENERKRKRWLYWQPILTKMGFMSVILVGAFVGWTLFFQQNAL
Put plainly: HiBiT Degradation 293T.109 PTPN2 (Nano-Glo HiBiT Lytic Assay). To be noted: 24.0 hours. It counts as cell-based. From the text: Dulbecco's modified Eagle medium (DMEM) without phenol red and fetal bovine serum (FBS) were purchased from Gibco (Grand Island, NY, USA). Nano-Glo® HiBIT Lytic Assay System was purchased from Promega (Madison, WI, USA). 293T.109 (HiBIT-PTPN2) cell line was generated by ectopically expressing PTPN2 with N-terminal HiBIT fusion tag in 293T WT cell line purchased from ATCC (Manassas, VA, USA). Cell culture flasks and 384-well microplates were acquired from VWR (Radnor, PA, USA).
PTPN2 degradation was determined based on quantification of luminescent signal using Nano-Glo® HiBIT Lytic Assay kit. Test compounds were added to the 384-well plate from a top concentration of 10 μM with 11 points, half log titration in duplicates. 293T.109 cells were added into 384-well plates at a cell density of 5000 cells per well. The plates were kept at 37° C. with 5% CO2 for 24 hours. The cells treated in the absence of the test compound were the negative control and the cells without Nano-Glo® HiBIT Lytic reagent were the positive control. After 24-hour incubation, Nano-Glo® HiBiT Lytic Assay reagents were added to the cells. Luminescence was acquired on EnVision™ Multilabel Reader (PerkinElmer, Santa Clara, CA, USA).

As to `Cn1c(=O)n(C2CCC(=O)NC2=O)c2ccc(C3CN(C(=O)Nc4cccc(CS(=O)(=O)N5CC[C@H](Nc6cccc(-c7sc(C(=O)O)c(OCC(=O)O)c7Cl)c6)CC5(C)C)c4)CCC3F)cc21` (stereo partly drawn) [Example 212, 3-(carboxymethoxy)-4-chloro-5-[3-[[(4S)-1-[[3-[[3-[1-(2,6-dioxo-3-piperidyl)-3-methyl-2-oxo-benzimidazol-5-yl]-4-fluoro-piperidine-1-carbonyl]amino]phenyl]methylsulfonyl]-2,2-dimethyl-4-piperidyl]amino]phenyl]thiophene-2-carboxylic acid], the figures for the DC50 (on PTPN2 (B16F10.4 cells); in assay [1]) were 50 to 200 nM and 200 to 1000 nM, respectively.

In the case of `Cn1c(=O)n(C2CCC(=O)NC2=O)c2cccc(CCC(=O)Nc3cccc(CS(=O)(=O)N4CCC(Nc5cccc(-c6sc(C(=O)O)c(OCC(=O)O)c6Cl)c5)CC4)c3)c21` (centres unmarked) [Example 53], the half-maximal degradation concentration (DC50) at PTPN2 (B16F10.4 cells) fell in the range of 200 to 1000 nM; in assay [1] it was 50 to 200 nM.

Regarding `O=C(O)COc1c(C(=O)O)sc(-c2cccc(NC3CCN(S(=O)(=O)Cc4cccc(NC(=O)C5CCN(C(=O)CNc6cccc7c6CN(C6CCC(=O)NC6=O)C7=O)CC5)c4F)CC3)c2)c1Cl` (centres unmarked) [Example 73, 3-(carboxymethoxy)-4-chloro-5-(3-((1-((3-(1-((2-(2,6-dioxopiperidin-3-yl)-1-oxoisoindolin-4-yl)glycyl)piperidine-4-carboxamido)-2-fluorobenzyl)sulfonyl)piperidin-4-yl)amino)phenyl)thiophene-2-carboxylic acid], the figures for the DC50 (at PTPN2 (B16F10.4 cells); in assay [1]) were ≥ 1000 nM and 50 to 200 nM, respectively.

For `CC1(C)C[C@@H](Nc2cccc(-c3sc(C(=O)O)c(OCC(=O)O)c3Cl)c2)CCN1S(=O)(=O)Cc1cccc(NC(=O)N2CCC(Oc3ccc4c(c3)CN(C3CCC(=O)NC3=O)C4=O)CC2)c1` (some centres unmarked) [Example 76], the 50% degradation concentration (DC50) is ≥ 1000 nM at PTPN2 (B16F10.4 cells) and 200 to 1000 nM in assay [1].

For `Cn1c(=O)n(C2CCC(=O)NC2=O)c2ccc(C3CCN(C(=O)Nc4cccc(CS(=O)(=O)N5CCC(Nc6cccc(-c7sc(C(=O)O)c(OCC(=O)O)c7Cl)c6)CC5)c4F)CC3)cc21` (centres unmarked) [Example 99, 3-(carboxymethoxy)-4-chloro-5-[3-[[1-[[3-[[4-[1-(2,6-dioxo-3-piperidyl)-3-methyl-2-oxo-benzimidazol-5-yl]piperidine-1-carbonyl]amino]-2-fluoro-phenyl]methylsulfonyl]-4-piperidyl]amino]phenyl]thiophene-2-carboxylic acid], the half-maximal degradation concentration (DC50) at PTPN2 (B16F10.4 cells) is < 50 nM; in assay [1] it was 50 to 200 nM.

Regarding `CC1(C)C[C@@H](Nc2cccc(-c3sc(C(=O)O)c(OCC(=O)O)c3Cl)c2)CCN1S(=O)(=O)Cc1ccc(F)c(NC(=O)N2CCC(c3ccc4c5c(cccc35)C(=O)N4C3CCC(=O)NC3=O)CC2)c1` (some centres unmarked) [Example 126], the figures for the half-maximal degradation concentration (DC50) (at PTPN2 (B16F10.4 cells); in assay [1]) were < 50 nM and 50 to 200 nM, respectively.

Turning to `Cn1c(=O)n(C2CCC(=O)NC2=O)c2ccc([C@H]3CCN(C(=O)Nc4cccc(CS(=O)(=O)N5CC[C@H](Nc6cccc(-c7sc(C(=O)O)c(OCC(=O)O)c7Cl)c6)CC5(C)C)c4)C[C@@H]3F)cc21` (some centres unmarked) [Example 171], the 50% degradation concentration (DC50) (on PTPN2 (B16F10.4 cells); in assay [1]) was < 50 nM in each case.

Take `Cc1cn(C2CCC(=O)NC2=O)c2ccc(C3CCN(C(=O)Nc4cccc(CS(=O)(=O)N5CC[C@H](Nc6cccc(-c7sc(C(=O)O)c(OCC(=O)O)c7Cl)c6)CC5(C)C)c4)CC3)cc12` (stereo partly drawn) [Example 211, 3-(carboxymethoxy)-4-chloro-5-[3-[[(4S)-1-[[3-[[4-[1-(2,6-dioxo-3-piperidyl)-3-methyl-indol-5-yl]piperidine-1-carbonyl]amino]phenyl]methylsulfonyl]-2,2-dimethyl-4-piperidyl]amino]phenyl]thiophene-2-carboxylic acid]: the 50% degradation concentration (DC50) (at PTPN2 (B16F10.4 cells); in assay [1]) was 200 to 1000 nM in each case.

For `O=C(O)COc1c(C(=O)O)sc(-c2cccc(NC3CCN(S(=O)(=O)Cc4cccc(NC(=O)CN5CCC(c6ccc7c(c6)CN(C6CCC(=O)NC6=O)C7=O)CC5)c4)CC3)c2)c1Cl` (centres unmarked) [Example 45], the DC50 (on PTPN2 (B16F10.4 cells); in assay [1]) was 200 to 1000 nM throughout.

`O=C(O)COc1c(C(=O)O)sc(-c2cccc(NC3CCN(S(=O)(=O)C(c4ccccc4)c4cccc(NC(=O)CNc5ccc6c(c5)C(=O)N(C5CCC(=O)NC5=O)C6=O)c4)CC3)c2)c1Cl` (centres unmarked) [Example 42, 3-(carboxymethoxy)-4-chloro-5-(3-((1-(((3-(2-((2-(2,6-dioxopiperidin-3-yl)-1,3-dioxoisoindolin-5-yl)amino)acetamido)phenyl)(phenyl)methyl)sulfonyl)piperidin-4-yl)amino)phenyl)thiophene-2-carboxylic acid]: the DC50 is ≥ 1000 nM on PTPN2 (B16F10.4 cells) and 200 to 1000 nM in assay [1].

With `CC1Cc2cc(C3CCN(C(=O)Nc4cccc(CS(=O)(=O)N5CC[C@H](Nc6cccc(-c7sc(C(=O)O)c(OCC(=O)O)c7Cl)c6)CC5(C)C)c4)CC3)ccc2N1C1CCC(=O)NC1=O` (stereo partly drawn) [Example 95, 3-(carboxymethoxy)-4-chloro-5-[3-[[(4S)-1-[[3-[[4-[1-(2,6-dioxo-3-piperidyl)-2-methyl-indolin-5-yl]piperidine-1-carbonyl]amino]phenyl]methylsulfonyl]-2,2-dimethyl-4-piperidyl]amino]phenyl]thiophene-2-carboxylic acid], the 50% degradation concentration (DC50) (on PTPN2 (B16F10.4 cells); in assay [1]) was 200 to 1000 nM in each case.

Take `COCCn1c(=O)n(C2CCC(=O)NC2=O)c2ccc(C3CCN(C(=O)Nc4cccc(CS(=O)(=O)N5CC[C@H](Nc6cccc(-c7sc(C(=O)O)c(OCC(=O)O)c7Cl)c6)CC5(C)C)c4)CC3)cc21` (stereo partly drawn) [Example 160, 3-(carboxymethoxy)-4-chloro-5-(3-(((4S)-1-((3-(4-(1-(2,6-dioxopiperidin-3-yl)-3-(2-methoxyethyl)-2-oxo-2,3-dihydro-1H-benzo[d]imidazol-5-yl)piperidine-1-carboxamido)benzyl)sulfonyl)-2,2-dimethylpiperidin-4-yl)amino)phenyl)thiophene-2-carboxylic acid]: the 50% degradation concentration (DC50) (at PTPN2 (B16F10.4 cells); in assay [1]) was 50 to 200 nM throughout.

As to `Cn1c(=O)n(C2CCC(=O)NC2=O)c2ccc(C3CN(CC(=O)Nc4cccc(CS(=O)(=O)N5CC[C@H](Nc6cccc(-c7sc(C(=O)O)c(OCC(=O)O)c7Cl)c6)CC5(C)C)c4)C3)cc21` (some centres unmarked) [Example 184], the figures for the DC50 (at PTPN2 (B16F10.4 cells); in assay [1]) were 50 to 200 nM and < 50 nM, respectively.

Consider `CC1(C)C[C@@H](Nc2cccc(-c3sc(C(=O)O)c(OCC(=O)O)c3Cl)c2)CCN1S(=O)(=O)Cc1cccc(NC(=O)C2CN(C(=O)CNc3cccc4c3CN(C3CCC(=O)NC3=O)C4=O)C2)c1` (stereo partly drawn) [Example 44, 3-(Carboxymethoxy)-4-chloro-5-(3-(((4S)-1-((3-(1-((2-(2,6-dioxopiperidin-3-yl)-1-oxoisoindolin-4-yl)glycyl)azetidine-3-carboxamido)benzyl)sulfonyl)-2,2-dimethylpiperidin-4-yl)amino)phenyl)thiophene-2-carboxylic acid], for which the values for the DC50 (at PTPN2 (B16F10.4 cells); in assay [1]) were 200 to 1000 nM and < 50 nM, respectively.

For the molecule `CC1(C)C[C@@H](Nc2cccc(-c3sc(C(=O)O)c(OCC(=O)O)c3Cl)c2)CCN1S(=O)(=O)Cc1cccc(NC(=O)N2CCN(C(=O)CCc3cccc4c3CN(C3CCC(=O)NC3=O)C4=O)CC2)c1` (some centres unmarked) [Example 64], the half-maximal degradation concentration (DC50) (at PTPN2 (B16F10.4 cells); in assay [1]) was 200 to 1000 nM throughout.

`CC1(C)C[C@@H](Nc2cccc(-c3sc(C(=O)O)c(OCC(=O)O)c3Cl)c2)CCN1S(=O)(=O)Cc1cccc(NC(=O)N2CCCN(c3ccc4c5c(cccc35)N(C3CCC(=O)NC3=O)C4=O)CC2)c1` (stereo partly drawn) [Example 164, 3-(carboxymethoxy)-4-chloro-5-(3-(((4S)-1-((3-(4-(1-(2,6-dioxopiperidin-3-yl)-2-oxo-1,2-dihydrobenzo[cd]indol-5-yl)-1,4-diazepane-1-carboxamido)benzyl)sulfonyl)-2,2-dimethylpiperidin-4-yl)amino)phenyl)thiophene-2-carboxylic acid]: the DC50 in assay [1] was in the range of 200 to 1000 nM.

`Cn1c(=O)n(C2CCC(=O)NC2=O)c2ccc(N3CCCC4(CN(C(=O)Nc5cccc(CS(=O)(=O)N6CC[C@H](Nc7cccc(-c8sc(C(=O)O)c(OCC(=O)O)c8Cl)c7)CC6(C)C)c5)C4)C3)cc21` (some centres unmarked) [Example 141] came in with a DC50 on PTPN2 (B16F10.4 cells) of 200 to 1000 nM.
